# “And” between values parts separate entries of the source, which are not always exact repeats. Equal entries are not always repeated. Where two headings read alike, the source gives them in different places.
# Experiments:
# M. tb H37Rv strain [1] = experiment: Microplate alamarBlue assay; assay type: cell-based, Mycobacterium tuberculosis
# [2] = system: Mycobacterium abscessus (M. abs); experiment: MABA MIC against M. abs; assay type: cell-based; details: for MIC: Mycobacteroides abscessus, read-out: M. abs MIC
# Vero cells = experiment: Cytotoxicity on Vero cells; assay type: cell-based; details: SI = IC50(Vero)/MIC(H37Rv)
# physchem = details: water, kinetic from dmso stock
# [3] = system: Mycobacterium avium (M. avium); experiment: MABA MIC against M. avium; assay type: cell-based; details: for MIC: Mycobacterium avium, read-out: M. avium MIC
# M. tb V4207/DS = experiment: microbe, parasite or virus in culture; assay type: cell-based; details: Mycobacterium tuberculosis, read-out: M. tb MIC V4207/DS
# [4] = cited from earlier work
# DS- and DR-TB [5] = details: cited from earlier work
# M. tb H37Rv strain [6] = details: cited from earlier work
# [7] = cited from earlier work; remark: listed apart in the source
# XDR M. tb strains = experiment: microbe, parasite or virus in culture; assay type: cell-based; details: Mycobacterium tuberculosis, read-out: MIC against XDR M. tb strains
# DS- and DR-TB [8] = experiment: MIC against both DS- and DR-TB as stated in text; details: Mycobacterium tuberculosis, read-out: MIC against both DS- and DR-TB
# [9] = Mycobacterium tuberculosis, H37RV
# [10] = M. tb H37Rv, MABA, at least 90% growth inhibition, average of three measurements
SMILES,MIC (M. tb H37Rv strain [1]; [9]),MIC [2],Selectivity index (SI) (Vero cells),MIC [3],MIC (M. tb V4207/DS),further results
"COc1ccc2[nH]c(C(=O)NC34CC5CC(CC(O)(C5)C3)C4)cc2c1 [8e, N-(3-hydroxyadamantan-1-yl)-5-methoxy-1H-indole-2-carboxamide]",47 µM,–,–,–,–,–
"O=C(NC12CC3CC(CC(O)(C3)C1)C2)c1cc2c(F)cc(F)cc2[nH]1 [8l, 4,6-difluoro-N-(3-hydroxyadamantan-1-yl)-1H-indole-2-carboxamide]",–,> 185 µM,32,> 185 µM,2.89 µM,solubility kinetic (physchem): 19 µg/mL
COc1nc2ccc(Br)cc2cc1[C@@H](c1ccccc1)[C@@](O)(CCN(C)C)c1cccc2ccccc12 [bedaquiline],–,–,–,–,–,logP [4]: > 7; MIC against both DS- and DR-TB (DS- and DR-TB [5]): 0.11 µM
"O=C(NC12CC3CC(CC(O)(C3)C1)C2)c1cc2ccccc2[nH]1 [8a, N-(3-hydroxyadamantan-1-yl)-1H-indole-2-carboxamide]",51.5 µM,–,–,–,–,–
"O=C(NC12CC3CC(CC(O)(C3)C1)C2)c1cc2ccc(Br)cc2[nH]1 [8i, 6-bromo-N-(3-hydroxyadamantan-1-yl)-1H-indole-2-carboxamide]",1.32 to 2.89 µM,> 164 µM,32,> 164 µM,5.14 µM,–
"Cc1ccc2[nH]c(C(=O)NC34CC5CC(CC(O)(C5)C3)C4)cc2c1 [8g, N-(3-hydroxyadamantan-1-yl)-5-methyl-1H-indole-2-carboxamide]",24.7 µM,–,–,–,–,–
"O=C(NC12CC3CC(CC(O)(C3)C1)C2)c1cc2cc(Cl)ccc2[nH]1 [8h, 5-chloro-N-(3-hydroxyadamantan-1-yl)-1H-indole-2-carboxamide]",> 93 µM,–,–,–,–,MIC (M. tb H37Rv strain [1]; [10]): >93 µM
"Cc1ccc2[nH]c(C(=O)NC34CC5CC(CC(C5)C3)C4)cc2c1 [8f, N-(1-Adamantyl)-5-methyl-1H-indole-2-carboxamide]",0.2 µM,> 207 µM,≥1024,> 207 µM,0.2 µM,–
"COc1ccc2[nH]c(C(=O)NC34CC5CC(CC(C5)C3)C4)cc2c1 [8d, N-(1-Adamantyl)-5-methoxy-1H-indole-2-carboxamide]",0.77 µM,> 197 µM,≥256,> 197 µM,0.39 to 0.77 µM,–
"O=C(Nc1nc2ccccc2[nH]1)C12CC3CC(CC(C3)C1)C2 [13a, N-(1H-benzo[d]imidazol-2-yl)adamantane-1-carboxamide]",13.5 µM,–,–,–,–,–
"O=C(Nc1cc(Cl)cc(Cl)c1)NC12CC3CC(CC(C3)C1)C2 [10a, 1-(1-Adamantyl)-3-(3,5-dichlorophenyl)urea]",–,> 189 µM,4.0,47.2 µM,1.47 µM,M. abs MIC ([2]; MABA): >189 µM
"O=C(Nc1nc2ccccc2[nH]1)NC12CC3CC(CC(C3)C1)C2 [compound 12, 1-(1-adamantyl)-3-(1H-benzo[d]imidazol-2-yl)urea]",25.8 µM,–,–,–,–,–
"O=C(CC12CC3CC(CC(C3)C1)C2)Nc1nc2ccccc2[nH]1 [13b, 2-(1-Adamantyl)-N-(1H-benzo[d]imidazol-2-yl)acetamide]",> 103 µM,–,–,–,–,MIC (M. tb H37Rv strain [1]; [10]): >103 µM
"O=C(NC12CC3CC(CC(C3)C1)C2)c1cc2c(Cl)cc(Cl)cc2[nH]1 [compound 2, N-(1-adamantyl)-4,6-dichloroindole-2-carboxamide]",–,–,–,–,–,MIC (M. tb H37Rv strain [6]; ref 45): 0.011 μM and 0.011 [45] μM; in vivo activity ([7]; due to poor bioavailability): inactive in vivo; in vivo activity ([7]; likely due to poor bioavailability): inactive in vivo
"O=C(NC12CC3CC(CC(C3)C1)C2)c1cc2c(F)cc(F)cc2[nH]1 [8k, N-(1-Adamantyl)-4,6-difluoro-1H-indole-2-carboxamide]",0.024 µM,> 194 µM,≥8205,> 194 µM,0.024 µM,MIC (XDR M. tb strains): 0.012 µM; MIC (DS- and DR-TB [8]): 0.012 to 0.024 µM; solubility kinetic (physchem): 7 µg/mL
"O=C(NC12CC3CC(CC(O)(C3)C1)C2)c1cc2c(Cl)cc(Cl)cc2[nH]1 [8j, 4,6-dichloro-N-(3-hydroxyadamantan-1-yl)-1H-indole-2-carboxamide]",–,> 169 µM,≥128,> 169 µM,1.32 µM,MIC (XDR M. tb strains): 0.66 µM; MIC (M. tb H37Rv strain [1]; [10]): 1.32 µM
"COc1cccc2[nH]c(C(=O)NC34CC5CC(CC(O)(C5)C3)C4)cc12 [8c, N-(3-hydroxyadamantan-1-yl)-4-methoxy-1H-indole-2-carboxamide]",11.7 µM,–,–,–,–,solubility kinetic (physchem): 30 µg/mL
O=C(Nc1ccc(F)c(F)c1F)NC1C2CC3CC(C2)CC1C3 (centres unmarked) [compound 4],–,–,–,–,–,"MIC (M. tb H37Rv strain [6]; ref 26, 43): 0.03–0.3 [26, 43] μM"
"O=C(Nc1cc(Cl)cc(Cl)c1)NC12CC3CC(CC(O)(C3)C1)C2 [10b, 1-(3,5-dichlorophenyl)-3-(3-hydroxyadamantan-1-yl)urea]",> 90 µM,–,–,–,–,–
"COc1cccc2[nH]c(C(=O)NC34CC5CC(CC(C5)C3)C4)cc12 [8b, N-(1-Adamantyl)-4-methoxy-1H-indole-2-carboxamide]",0.096 µM,12.3 µM,≥2048,> 197 µM,0.096 µM,solubility kinetic (physchem): 5 µg/mL; M. avium MIC ([3]; MABA): >197 µM
CC1(C)CCC(NC(=O)c2cc3c(Cl)cc(Cl)cc3[nH]2)CC1 [compound 1],–,–,–,–,–,MIC (M. tb H37Rv strain [6]; ref 23): 0.015 [23] μM
